The subject of this experiment is CsgA gene expression (csgBAC promoter-GFP reporter) in E. coli UTI89. Put plainly: In vitro live cell fluorescent reporter assay of CsgA transcription (Reporter Assay). The class given is cell-based. The note with it: Escherichia coli. In outline: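 Compounds at 0.14–100 μM (1% DMSO final) incubated 20 h at 27 °C in YESCA broth with UTI89 carrying a single-copy GFP reporter under the csgBAC intergenic promoter region, inoculum OD600 0.003. Fluorescence normalized to vehicle wells gave IC50 and 50%-of-vehicle concentration; OD600 reduction >10% flagged growth impact.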
For orientation: In a reporter assay the amount or activity of a reporter protein is the signal.

[1] abbreviates: read-out: Reporter Assay Abs IC50 (μM), median Abs IC50 in the CsgA reporter assay, N/A = maximum expression reduction is <50% of control.
The mark [2] stands for this setting: read-out: Reporter Assay Abs IC50, activity range, class symbol.
Where [3] appears, read: read-out: Reporter Assay Abs IC50 (activity range), median Abs IC50 in the CsgA reporter assay, class symbol.

Each structure is given as a SMILES string. Where two headings read alike, the source gives them in different places.

What is called IC50 is the concentration that inhibits the measured activity by half. For the compound `NC(=O)c1c(Cc2cccc3ccccc23)c(-c2cccc(C(F)(F)F)c2)c2n(c1=O)C(C(=O)O)CN(CCCO)S2(=O)=O` (centres unmarked) [Compound 184, 7-carbamoyl-2-(3-hydroxypropyl)-8-(naphthalen-1-ylmethyl)-6-oxo-9-(3-(trifluoromethyl)phenyl)-3,4-dihydro-2H,6H-pyrido[1,2-e][1,2,5]thiadiazine-4-carboxylic acid 1,1-dioxide], the IC50 by setting is: under setting [1], 2.7 µM; under setting [2], 1.3 to 4.5 µM.
As for `O=C(O)C1n2c(c(-c3cccc(C(F)(F)F)c3)c(Cc3cccc4ccccc34)nc2=O)SC12CCCC2` (centres unmarked) [Compound 053, 7′-(naphthalen-1-ylmethyl)-5′-oxo-8′-(3-(trifluoromethyl)phenyl)-3′H,5′H-spiro[cyclopentane-1,2′-thiazolo[3,2-c]pyrimidine]-3′-carboxylic acid], the IC50 under setting [3] was greater than 10 µM and the 50% inhibitory concentration (IC50) under setting [1] turned out to be 16.3 µM.
As to `O=C(O)C1CN(Cc2cccc3ccccc23)c2c(-c3cccc(C(F)(F)F)c3)c(Cc3cccc4ccccc34)c(Cl)c(=O)n21` (centres unmarked) [Compound 200, 6-chloro-1,7-bis(naphthalen-1-ylmethyl)-5-oxo-8-(3-(trifluoromethyl)phenyl)-1,2,3,5-tetrahydroimidazo[1,2-a]pyridine-3-carboxylic acid], the IC50 by setting is: under setting [1], 1.3 µM; under setting [2], 1.3 to 4.5 µM.
On to `O=C(O)C1CN(Cc2ccccc2)c2c(-c3cccc(C(F)(F)F)c3)c(Cc3cccc4ccccc34)c(Br)c(=O)n21` (centres unmarked) [Compound 003, 1-benzyl-6-bromo-7-(naphthalen-1-ylmethyl)-5-oxo-8-(3-(trifluoromethyl)phenyl)-1,2,3,5-tetrahydroimidazo[1,2-a]pyridine-3-carboxylic acid], for which the IC50 runs as follows: under setting [1], 0.8 µM; under setting [2], less than 1.3 µM.
With `CCCN1CC(C(=O)O)n2c(c(-c3cccc(C(F)(F)F)c3)c(Cc3cccc4ccccc34)c(NC(=O)C(C)C)c2=O)S1(=O)=O` (centres unmarked) [Compound 152, 7-isobutyramido-8-(naphthalen-1-ylmethyl)-6-oxo-2-propyl-9-(3-(trifluoromethyl)phenyl)-3,4-dihydro-2H,6H-pyrido[1,2-e][1,2,5]thiadiazine-4-carboxylic acid 1,1-dioxide], the half-maximal inhibitory concentration (IC50) runs as follows: under setting [1], 11.4 µM; under setting [2], greater than 10 µM.
Take `Cc1c(Cc2cccc3ccccc23)c(-c2cccc(C(F)(F)F)c2)c2n(c1=O)C(C(=O)O)CN(C)S2(=O)=O` (centres unmarked) [Compound 068, 2,7-dimethyl-8-(naphthalen-1-ylmethyl)-6-oxo-9-(3-(trifluoromethyl)phenyl)-3,4-dihydro-2H,6H-pyrido[1,2-e][1,2,5]thiadiazine-4-carboxylic acid 1,1-dioxide]: the IC50 under setting [3] is greater than 10 µM and the IC50 under setting [1] is 11.1 µM.
`CCCN1CC(C(=O)O)n2c1c(-c1cccc(C(F)(F)F)c1)c(Cc1cccc3ccccc13)c(Cl)c2=O` (centres unmarked) [Compound 162, 6-chloro-7-(naphthalen-1-ylmethyl)-5-oxo-1-propyl-8-(3-(trifluoromethyl)phenyl)-1,2,3,5-tetrahydroimidazo[1,2-a]pyridine-3-carboxylic acid]: the half-inhibitory concentration (IC50) by setting is: under setting [1], 1.1 µM; under setting [2], less than 1.3 µM.
For `CCCN1CC(C(=O)O)n2c(c(-c3cccc(C(F)(F)F)c3)c(Cc3cccc4ccccc34)c(O)c2=O)S1(=O)=O` (centres unmarked) [Compound 141, 7-hydroxy-8-(naphthalen-1-ylmethyl)-6-oxo-2-propyl-9-(3-(trifluoromethyl)phenyl)-3,4-dihydro-2H,6H-pyrido[1,2-e][1,2,5]thiadiazine-4-carboxylic acid 1,1-dioxide], the IC50 reads like this: under setting [1], 2.7 µM; under setting [2], 1.3 to 4.5 µM.
For `Cn1c(=O)c2c(nc(CCCCCN3CC(C(=O)O)n4c(c(-c5cccc(C(F)(F)F)c5)c(Cc5cccc6ccccc56)cc4=O)S3(=O)=O)n2C)n(C)c1=O` (centres unmarked) [Compound 045, 8-(naphthalen-1-ylmethyl)-6-oxo-9-(3-(trifluoromethyl)phenyl)-2-(5-(1,3,7-trimethyl-2,6-dioxo-2,3,6,7-tetrahydro-1H-purin-8-yl)pentyl)-3,4-dihydro-2H,6H-pyrido[1,2-e][1,2,5]thiadiazine-4-carboxylic acid 1,1-dioxide], the concentration for half-maximal inhibition (IC50) runs as follows: under setting [3], 1.3 to 4.5 µM; under setting [1], 1.3 µM.
Consider `CC(C)N1CC(C(=O)O)n2c1c(-c1cccc(C(F)(F)F)c1)c(Cc1cccc3ccccc13)c(Cl)c2=O` (centres unmarked) [Compound 179, 6-chloro-1-isopropyl-7-(naphthalen-1-ylmethyl)-5-oxo-8-(3-(trifluoromethyl)phenyl)-1,2,3,5-tetrahydroimidazo[1,2-a]pyridine-3-carboxylic acid], for which the IC50 under setting [1] came out at 1.4 µM and the half-maximal inhibitory concentration (IC50) under setting [2] is 1.3 to 4.5 µM.
In the case of `CN1CC(C(=O)O)n2c(c(-c3cccc(C(F)(F)F)c3)c(Cc3cccc4ccccc34)c(NC3CCCC3)c2=O)S1(=O)=O` (centres unmarked) [Compound 070, 7-(cyclopentylamino)-2-methyl-8-(naphthalen-1-ylmethyl)-6-oxo-9-(3-(trifluoromethyl)phenyl)-3,4-dihydro-2H,6H-pyrido[1,2-e][1,2,5]thiadiazine-4-carboxylic acid 1,1-dioxide], the concentration for half-maximal inhibition (IC50) runs as follows: under setting [3], 1.3 to 4.5 µM; under setting [1], 2.3 µM.
For `O=C(O)c1c(-c2ccccc2)sc2c(-c3cccc(C(F)(F)F)c3)c(Cc3cccc4ccccc34)cc(=O)n12` [Compound 051, 7-(naphthalen-1-ylmethyl)-5-oxo-2-phenyl-8-(3-(trifluoromethyl)phenyl)-5H-thiazolo[3,2-a]pyridine-3-carboxylic acid], the IC50 was less than 1.3 µM under setting [3] and 1 µM under setting [1].
For the compound `CNC(=O)C1CN(C)S(=O)(=O)c2c(-c3cccc(C(F)(F)F)c3)c(Cc3cccc4ccccc34)cc(=O)n21` (centres unmarked) [Compound 031, N,2-dimethyl-8-(naphthalen-1-ylmethyl)-6-oxo-9-(3-(trifluoromethyl)phenyl)-3,4-dihydro-2H,6H-pyrido[1,2-e][1,2,5]thiadiazine-4-carboxamide 1,1-dioxide], the half-inhibitory concentration (IC50) runs as follows: under setting [3], 1.3 to 4.5 µM; under setting [1], 4.2 µM.
On to `Cn1c(=O)c2c(ncn2CCCCCN2CC(C(=O)O)n3c(c(-c4cccc(C(F)(F)F)c4)c(Cc4cccc5ccccc45)cc3=O)S2(=O)=O)n(C)c1=O` (centres unmarked) [Compound 034, 2-(5-(1,3-dimethyl-2,6-dioxo-1,2,3,6-tetrahydro-7H-purin-7-yl)pentyl)-8-(naphthalen-1-ylmethyl)-6-oxo-9-(3-(trifluoromethyl)phenyl)-3,4-dihydro-2H,6H-pyrido[1,2-e][1,2,5]thiadiazine-4-carboxylic acid 1,1-dioxide], for which the concentration for half-maximal inhibition (IC50) was 1.3 to 4.5 µM under setting [3] and 2.8 µM under setting [1].
As for `CC(C)(C)c1ccc(Cc2c(-c3cccc(C(F)(F)F)c3)c3n(c(=O)c2Cl)C(C(=O)O)CN3Cc2ccccc2)cc1` (centres unmarked) [Compound 216, 1-benzyl-7-(4-(tert-butyl)benzyl)-6-chloro-5-oxo-8-(3-(trifluoromethyl)phenyl)-1,2,3,5-tetrahydroimidazo[1,2-a]pyridine-3-carboxylic acid], the IC50 by setting is: under setting [1], 0.7 µM; under setting [2], less than 1.3 µM.
On the same counts, the results for `CCc1c(Cc2cccc3ccccc23)c(-c2cccc(C(F)(F)F)c2)c2n(c1=O)C(C(=O)O)CN2Cc1ccccc1` (centres unmarked) [Compound 140, 1-benzyl-6-ethyl-7-(naphthalen-1-ylmethyl)-5-oxo-8-(3-(trifluoromethyl)phenyl)-1,2,3,5-tetrahydroimidazo[1,2-a]pyridine-3-carboxylic acid] are 1 µM and less than 1.3 µM.
On to `O=C(O)C1CN(CCCO)S(=O)(=O)c2c(-c3cccc(C(F)(F)F)c3)c(Cc3cccc4ccccc34)cc(=O)n21` (centres unmarked) [Compound 056, 2-(3-hydroxypropyl)-8-(naphthalen-1-ylmethyl)-6-oxo-9-(3-(trifluoromethyl)phenyl)-3,4-dihydro-2H,6H-pyrido[1,2-e][1,2,5]thiadiazine-4-carboxylic acid 1,1-dioxide], for which the IC50 was greater than 10 µM under setting [3] and 19.8 µM under setting [1].
For the compound `CC(C)CN1CC(C(=O)O)n2c1c(-c1cccc(C(F)(F)F)c1)c(Cc1cccc3ccccc13)c(Cl)c2=O` (centres unmarked) [Compound 164, 6-chloro-1-isobutyl-7-(naphthalen-1-ylmethyl)-5-oxo-8-(3-(trifluoromethyl)phenyl)-1,2,3,5-tetrahydroimidazo[1,2-a]pyridine-3-carboxylic acid], the IC50 reads like this: under setting [1], 0.9 µM; under setting [2], less than 1.3 µM.
Regarding `COc1ccc(CN2CC(C(=O)O)n3c2c(-c2cccc(C(F)(F)F)c2)c(Cc2cccc4ccccc24)c(Cl)c3=O)cc1` (centres unmarked) [Compound 192, 6-chloro-1-(4-methoxybenzyl)-7-(naphthalen-1-ylmethyl)-5-oxo-8-(3-(trifluoromethyl)phenyl)-1,2,3,5-tetrahydroimidazo[1,2-a]pyridine-3-carboxylic acid], the concentration for half-maximal inhibition (IC50) is 2.5 µM under setting [1] and 1.3 to 4.5 µM under setting [2].
As to `O=C(O)c1c(CCc2ccccc2)sc2c(-c3cccc(C(F)(F)F)c3)c(Cc3cccc4ccccc34)cc(=O)n12` [Compound 062, 7-(naphthalen-1-ylmethyl)-5-oxo-2-phenethyl-8-(3-(trifluoromethyl)phenyl)-5H-thiazolo[3,2-a]pyridine-3-carboxylic acid], the half-maximal inhibitory concentration (IC50) runs as follows: under setting [3], less than 1.3 µM; under setting [1], 0.9 µM.
The corresponding values for `Nc1c(Cc2ccc(N)c3ccccc23)c(-c2cccc(C(F)(F)F)c2)c2n(c1=O)C(C(=O)O)CNS2(=O)=O` (centres unmarked) [Compound 041] are greater than 10 µM and 20.2 µM.
For the compound `CN1CC(C(=O)O)n2c(c(-c3cccc(C(F)(F)F)c3)c(Cc3cccc4ccccc34)c(NCc3ccccc3)c2=O)S1(=O)=O` (centres unmarked) [Compound 071], the IC50 by setting is: under setting [3], 1.3 to 4.5 µM; under setting [1], 1.6 µM.

These data come from patent publication US20230131899A1, “INHIBITORS OF MICROBIALLY INDUCED AMYLOID” (Axial Therapeutics, Inc., priority 2020, published 2023).
